Data as given in patent US9695155B2, “Herbicidal substituted pyrimidinyloxy benzene compounds” (E. I. DU PONT DE NEMOURS AND COMPANY, priority 2013, dated 2017).

How the values were obtained:
oilseed rape = assay: Test C preemergence; assay type: in vivo, Brassica napus; settings: Brassica napus, pre-emergence; Preemergence, 31 g ai/ha; scale 0 to 100, 0 no effect, 100 complete control; read-out: Plant response rating, Oilseed Rape
Outline: (§1)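 Visual injury score versus untreated controls, 0 = no effect, 100 = complete control, taken 13 to 15 days after treatment in the greenhouse. Pre-emergence pots held loam/sand; post-emergence plants grew in sphagnum peat/vermiculite mix and were sprayed at the 1- to 4-leaf stage.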

waterhemp [1] = assay: Test C preemergence; assay type: in vivo, Amaranthus rudis; settings: Amaranthus tuberculatus, pre-emergence
Outline: as §1

blackgrass = assay: Test C postemergence; assay type: in vivo, Alopecurus myosuroides; settings: Alopecurus myosuroides, post-emergence
Outline: as §1

Italian ryegrass = assay: Test C postemergence; assay type: in vivo, Lolium multiflorum; settings: Lolium multiflorum, post-emergence
Outline: as §1

corn = assay: Test C postemergence; assay type: in vivo, Zea mays; settings: Zea mays, post-emergence
Outline: as §1

lambsquarters = assay: Test C postemergence; assay type: in vivo, Chenopodium album; settings: Chenopodium album, post-emergence
Outline: as §1

pigweed = assay: Test C postemergence; assay type: in vivo, Amaranthus retroflexus; settings: Amaranthus retroflexus, post-emergence
Outline: as §1

barnyardgrass = assay: Test C postemergence; assay type: in vivo, Echinochloa crus-galli; settings: Echinochloa crus-galli, post-emergence
Outline: as §1

waterhemp [2] = assay: Test C postemergence; assay type: in vivo, Amaranthus rudis; settings: Amaranthus tuberculatus, post-emergence
Outline: as §1

N#Cc1cccc(Oc2ncc(Cl)cn2)c1-n1cc(C(F)(F)F)cn1 [Compound 58, 3-[(5-chloro-2-pyrimidinyl)oxy]-2-[4-(trifluoromethyl)-1H-pyrazol-1-yl]benzonitrile]
plant injury at 31 g/ha (oilseed rape): 100%
pest or weed control at 62 g/ha (waterhemp [1]; 62 g ai/ha, preemergence, scale 0 (no effect) to 100 (complete control), read-out: Waterhemp plant response rating): 100%
pest or weed control at 125 g/ha (waterhemp [1]; 125 g ai/ha, preemergence, scale 0 (no effect) to 100 (complete control), read-out: Waterhemp plant response rating): 100%
pest or weed control at 250 g/ha (waterhemp [1]; 250 g ai/ha, preemergence, scale 0 (no effect) to 100 (complete control), read-out: Waterhemp plant response rating): 100%
pest or weed control at 31 g/ha (waterhemp [1]; Preemergence, 31 g ai/ha, scale 0 to 100, 0 no effect, 100 complete control, read-out: Plant response rating, Waterhemp): 100%
pest or weed control at 125 g/ha (blackgrass; 125 g ai/ha, postemergence, read-out: Plant response rating (0 to 100), Blackgrass): 30%
pest or weed control at 250 g/ha (blackgrass; 250 g ai/ha, postemergence, read-out: Plant response rating (0 to 100), Blackgrass): 55%
pest or weed control at 31 g/ha (blackgrass; Postemergence, 31 g ai/ha, scale 0 to 100 (0 no effect, 100 complete control), 13 to 15 days, read-out: Plant response rating, Blackgrass): 10%
pest or weed control at 62 g/ha (blackgrass; Postemergence, 62 g ai/ha, scale 0 to 100 (0 no effect, 100 complete control), read-out: Plant response rating, Blackgrass): 15%
pest or weed control at 125 g/ha (Italian ryegrass; 125 g ai/ha, postemergence, read-out: Plant response rating (0 to 100), Ryegrass, Italian): 10%
pest or weed control at 250 g/ha (Italian ryegrass; 250 g ai/ha, postemergence, read-out: Plant response rating (0 to 100), Ryegrass, Italian): 35%
pest or weed control at 31 g/ha (Italian ryegrass; Postemergence, 31 g ai/ha, scale 0 to 100 (0 no effect, 100 complete control), 13 to 15 days, read-out: Plant response rating, Ryegrass, Italian): 5%
pest or weed control at 62 g/ha (Italian ryegrass; Postemergence, 62 g ai/ha, scale 0 to 100 (0 no effect, 100 complete control), read-out: Plant response rating, Ryegrass, Italian): 5%
plant injury at 125 g/ha (corn; 125 g ai/ha, postemergence, read-out: Plant response rating (0 to 100), Corn): 25%
plant injury at 250 g/ha (corn; 250 g ai/ha, postemergence, read-out: Plant response rating (0 to 100), Corn): 45%
Corn plant response rating (crop injury, 0 = no effect, 100 = complete kill) at 31 g/ha (corn; Postemergence, 31 g ai/ha, scale 0 to 100 (0 no effect, 100 complete control), 13 to 15 days): 10%
Corn plant response rating (crop injury, 0 = no effect, 100 = complete kill) at 62 g/ha (corn; Postemergence, 62 g ai/ha, scale 0 to 100 (0 no effect, 100 complete control)): 15%
pest or weed control at 125 g/ha (lambsquarters; 125 g ai/ha, postemergence, read-out: Plant response rating (0 to 100), Lambsquarters): 98%
pest or weed control at 250 g/ha (lambsquarters; 250 g ai/ha, postemergence, read-out: Plant response rating (0 to 100), Lambsquarters): 98%
pest or weed control at 31 g/ha (lambsquarters; Postemergence, 31 g ai/ha, scale 0 to 100 (0 no effect, 100 complete control), 13 to 15 days, read-out: Plant response rating, Lambsquarters): 75%
pest or weed control at 62 g/ha (lambsquarters; Postemergence, 62 g ai/ha, scale 0 to 100 (0 no effect, 100 complete control), read-out: Plant response rating, Lambsquarters): 90%
pest or weed control at 125 g/ha (pigweed; 125 g ai/ha, postemergence, read-out: Plant response rating (0 to 100), Pigweed): 98%
pest or weed control at 250 g/ha (pigweed; 250 g ai/ha, postemergence, read-out: Plant response rating (0 to 100), Pigweed): 100%
pest or weed control at 31 g/ha (pigweed; Postemergence, 31 g ai/ha, scale 0 to 100 (0 no effect, 100 complete control), 13 to 15 days, read-out: Plant response rating, Pigweed): 90%
pest or weed control at 62 g/ha (pigweed; Postemergence, 62 g ai/ha, scale 0 to 100 (0 no effect, 100 complete control), read-out: Plant response rating, Pigweed): 95%
pest or weed control at 125 g/ha (barnyardgrass; 125 g ai/ha, postemergence, read-out: Plant response rating (0 to 100), Barnyardgrass): 15%
pest or weed control at 250 g/ha (barnyardgrass; 250 g ai/ha, postemergence, read-out: Plant response rating (0 to 100), Barnyardgrass): 75%
pest or weed control at 31 g/ha (barnyardgrass; Postemergence, 31 g ai/ha, scale 0 to 100 (0 no effect, 100 complete control), 13 to 15 days, read-out: Plant response rating, Barnyardgrass): 5%
pest or weed control at 62 g/ha (barnyardgrass; Postemergence, 62 g ai/ha, scale 0 to 100 (0 no effect, 100 complete control), read-out: Plant response rating, Barnyardgrass): 5%
pest or weed control at 125 g/ha (waterhemp [2]; 125 g ai/ha, postemergence, read-out: Plant response rating (0 to 100), Waterhemp): 90%
pest or weed control at 250 g/ha (waterhemp [2]; 250 g ai/ha, postemergence, read-out: Plant response rating (0 to 100), Waterhemp): 100%
pest or weed control at 31 g/ha (waterhemp [2]; Postemergence, 31 g ai/ha, scale 0 to 100 (0 no effect, 100 complete control), 13 to 15 days, read-out: Plant response rating, Waterhemp): 85%
pest or weed control at 62 g/ha (waterhemp [2]; Postemergence, 62 g ai/ha, scale 0 to 100 (0 no effect, 100 complete control), read-out: Plant response rating, Waterhemp): 90%
